Calls of active or inactive are those of the source. The rule behind the calls is not given here.
Legend:
[1] = system: Vero; experiment: (§1) Cytotoxicity against African green monkey Vero cells assessed as reduction in cell viability measured after 1 hr by MTT assay; format: cell-based; conditions: chlorocebus sabaeus, vero, 1 h
[2] = as §1; format: cell-based; conditions: chlorocebus sabaeus, Vero cells
[3] = system: Zika virus; experiment: Antiviral activity against Zika virus PE243 infected in African green monkey Vero cells assessed as reduction in viral replication by measuring viral titer at CC20 incubated for 5 days by standard TCID50 method; format: functional, organism-based
[4] = system: Zika virus; experiment: Antiviral activity against Zika virus PE243 infected in African green monkey Vero cells assessed as reduction in viral replication by measuring viral titer per ml of cells at CC20 incubated for 5 days by standard TCID50 method (reference value: 6.7); format: functional
[5] = (§2) Cytotoxicity against African green monkey Vero cells assessed as reduction in cell viability measured after 120 hrs by MTT assay; format: cell-based; conditions: chlorocebus sabaeus, Vero cells
[6] = system: Vero; experiment: as §2; format: cell-based; conditions: chlorocebus sabaeus, vero, 120 h

C/C(=C\C(=O)O[C@@H]1[C@H](C)C[C@H]2O[C@]1(O)[C@@H](O)[C@@]1(C)CC[C@H](O1)C(C)(C)/C=C/[C@H](C)C2=O)C(C)O (stereo partly specified)
CC20 [1]: 8.7 to 328 µM

CCCCCCCCCCCC(=O)O[C@@]12C[C@@H](C)[C@@]3(O)[C@@H](C=C(C=O)C[C@]4(O)C(=O)C(C)=C[C@@H]34)[C@@H]1C2(C)C
CC50 at 1 h [2]: 24.6 to 848 µM | CC20 [1]: 8.7 to 328 µM

CC(=O)O[C@H](C)/C(C)=C/C(=O)O[C@@H]1[C@H](C)C[C@H]2O[C@]1(O)[C@@H](O)[C@@]1(C)CC[C@H](O1)C(C)(C)/C=C/[C@H](C)C2=O
CC20 [1]: 8.7 to 328 µM

CCCCCCCCCCCCCC(=O)O[C@@]12C[C@@H](C)[C@@]3(O)[C@@H](C=C(CO)C[C@]4(O)C(=O)C(C)=C[C@@H]34)[C@@H]1C2(C)C
CC50 at 1 h [2]: 24.6 to 848 µM | CC20 [1]: 8.7 to 328 µM | inhibition [3]: Active

CC1(C)CC[C@@H]2C(=O)C=C3[C@]4(C)CC[C@@H]5[C@](C)(CC[C@@H](OC(=O)/C=C/c6ccccc6)[C@@]5(C)C(=O)O)[C@H]4CC[C@@]3(C)[C@@H]2C1
CC50 at 1 h [2]: 24.6 to 848 µM | CC20 [1]: 8.7 to 328 µM | log10 TCID50 [4]: 1.7 | inhibition [3]: Active

CCCCCCCCCCCCCCCC(=O)O[C@@H]1[C@@H](C)[C@]2(O)[C@@H]3C=C(C)C(=O)[C@@H]3CC(C=O)=C[C@H]2[C@@H]2C(C)(C)[C@]12OC(C)=O
CC50 at 1 h [2]: 24.6 to 848 µM | CC20 [1]: 8.7 to 328 µM

CSc1ncnc2c1ncn2[C@@H]1O[C@H](CO)[C@@H](O)[C@H]1O
log10 TCID50 [4]: 5.4 | CC50 at 120 h [5]: 291 µM | CC20 [6]: 60.5 µM

CC/C(C)=C/C(=O)O[C@@H]1[C@H](C)C[C@H]2O[C@]1(O)[C@@H](O)[C@@]1(C)CC[C@H](O1)C(C)(C)/C=C/[C@H](C)C2=O
CC20 [1]: 8.7 to 328 µM

CCCCCCCCCCCCCCCC(=O)O[C@@H]1[C@@H](C)[C@]2(O)[C@@H]3C=C(C)C(=O)[C@@H]3CC(CO)=C[C@H]2[C@@H]2C(C)(C)[C@]12OC(C)=O
CC50 at 1 h [2]: 24.6 to 848 µM | CC20 [1]: 8.7 to 328 µM | inhibition [3]: Active

CC1(C)CC[C@@H]2C(=O)C=C3[C@]4(C)CC[C@@H]5[C@](C)(CC[C@@H](OC(=O)c6ccccc6)[C@@]5(C)C(=O)O)[C@H]4CC[C@@]3(C)[C@@H]2C1
CC50 at 1 h [2]: 24.6 to 848 µM | CC20 [1]: 8.7 to 328 µM

CCCCCCCCCCCC(=O)O[C@@]12C[C@@H](C)[C@@]3(O)[C@@H](C=C(CO)C[C@]4(O)C(=O)C(C)=C[C@@H]34)[C@@H]1C2(C)C
CC50 at 1 h [2]: 24.6 to 848 µM | CC20 [1]: 8.7 to 328 µM | inhibition [3]: Active

CCCCCCCC/C=C\CCCC(=O)O[C@@]12C[C@@H](C)[C@@]3(O)[C@@H](C=C(CO)C[C@]4(O)C(=O)C(C)=C[C@@H]34)[C@@H]1C2(C)C
CC50 at 1 h [2]: 24.6 to 848 µM | CC20 [1]: 8.7 to 328 µM | log10 TCID50 [4]: 1.8 | inhibition [3]: Active

CCCCCCCC/C=C\CCCC(=O)O[C@@]12C[C@@H](C)[C@@]3(O)[C@@H](C=C(C=O)C[C@]4(O)C(=O)C(C)=C[C@@H]34)[C@@H]1C2(C)C
CC50 at 1 h [2]: 24.6 to 848 µM | CC20 [1]: 8.7 to 328 µM
